Measurements: PubChem BioAssay (NCI)
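How tested: cells in 96-well plates exposed to compound for 48 hours at five concentrations. The concentration for full growth arrest is given as TGI.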

What was measured:
Assay in all cases: NCI tumour cell line growth inhibition, 48 h
[1] = system: MDA-N
[2] = system: HCT-116 colon
[3] = system: IGROV1 ovarian
[4] = system: T-47D breast
[5] = system: HOP-62 NSCLC
[6] = system: A498 renal
[7] = system: SK-MEL-5 melanoma
[8] = system: TK-10 renal
[9] = system: SK-OV-3 ovarian
[10] = system: RPMI-8226 leukemia
[11] = system: NCI-H23 lung
[12] = system: M19-MEL melanoma
[13] = system: KM20L2 colon
[14] = system: LXFL 529 NSCLC
[15] = system: HOP-18 NSCLC
[16] = system: DMS 273 small cell lung
[17] = system: DMS 114 small cell lung
[18] = system: XF 498 CNS

| Compound | TGI [1] [µM] | TGI [2] [µM] | TGI [3] [µM] | TGI [4] [µM] | TGI [5] [µM] | TGI [6] [µM] | TGI [7] [µM] | TGI [8] [µM] | TGI [9] [µM] | TGI [10] [µM] | TGI [11] [µM] | TGI [12] [µM] | TGI [13] [µM] | TGI [14] [µM] | TGI [15] [µM] | TGI [16] [µM] | TGI [17] [µM] | TGI [18] [µM] |
| --- | --- | --- | --- | --- | --- | --- | --- | --- | --- | --- | --- | --- | --- | --- | --- | --- | --- | --- |
| COc1ccc(C2NC(=S)Nc3c2c(=O)oc2c3ccc3ccccc32)cc1 (stereo not drawn) | > 100 | > 100 | > 100 | > 100 | > 100 | > 100 | > 100 | > 100 | > 100 | > 100 | > 100 |  |  |  |  |  |  |  |
| CC(NC(=O)/C(=C/c1ccccc1)NC(=O)c1ccccc1)C(=O)O (stereo not drawn) | > 100 | > 100 | > 100 | > 100 | > 100 | > 100 | > 100 |  | > 100 | > 100 | > 100 |  |  |  |  |  |  |  |
| CCOC(=O)C(/C(=N/S(=O)(=O)c1cc(C)c(Cl)cc1[S-])[n+]1ccc(N(C)C)cc1)=C(/O)c1ccc([N+](=O)[O-])cc1 | > 100 | 36.7 | > 100 | > 100 | 78.7 | 60.4 | > 100 | 58.7 | 68.4 | 63.7 |  |  |  |  |  |  |  |  |
| O=c1[nH]c(Cc2ccccc2)nc2c1sc1nc3ccccc3n12 | > 100 | > 100 | > 100 | > 100 |  | > 100 | > 100 | > 100 | > 100 | > 100 | > 100 |  |  |  |  |  |  |  |
| C=C1C(=O)O[C@H]2C/C(C)=C/CC[C@@]3(C)O[C@](C)(CC[C@@H]3I)[C@@H](I)C[C@@H]12 | 10.9 | 9.51 | 6.62 | 15 | 15.6 | 17.5 | 9.92 | 12.4 | 14.4 | 5.12 | 18.5 |  |  |  |  |  |  |  |
| CCCCNC(=O)c1cc2c(cc1Cl)Sc1nccn1S2(=O)=O | > 100 | > 100 | > 100 | > 100 | > 100 | > 100 | 63.7 | > 100 | > 100 | > 100 | > 100 |  |  |  |  |  |  |  |
| CC(C)C1C(=O)N(c2c(F)c(F)c(F)c(F)c2F)C(=S)N1CCS(=O)c1ccccc1 (stereo not drawn) | 32.4 | 34.7 | 34.4 | 32.5 | 40.8 | 30.6 | 27.3 | 52 | 34.9 | 53.8 | 33.3 |  |  |  |  |  |  |  |
| C#C[C@]1(O)CC[C@H]2[C@@H]3CCC4=C/C(=N/OCCN(C)C)CC[C@]4(C)[C@H]3CC[C@@]21C | 35.1 | > 100 | > 100 | > 100 | > 100 | > 100 | 78.3 | > 100 | > 100 | > 100 | > 100 |  |  |  |  |  |  |  |
| Cc1cc(C)n(CC(Cn2nc(C)cc2C)=C(/C(Cl)=C(/Cl)Nc2ccc([N+](=O)[O-])cc2)[N+](=O)[O-])n1 | 15.3 | 14.3 | 8.17 | 17.3 | 22.2 | 11.2 | 4.97 | 12.5 | 14.2 | 5.12 | 8.03 |  |  |  |  |  |  |  |
| c1ccc2c(Cc3[nH]c4ccccc4c3Cc3c[nH]c4ccccc34)c[nH]c2c1 | 5.47 | 3.47 | 13.7 | 12.8 | 12.7 | 5.73 | 6.05 | 8.1 | 15.4 | 12.2 | 7.49 |  |  |  |  |  |  |  |
| O=c1[nH]c2nnc(COc3ccc(Cl)cc3Cl)n2nc1Cc1ccccc1 | > 100 | > 100 | 76.6 | > 100 | > 100 | 82 | > 100 | 96.5 | 58.8 | > 100 | > 100 |  |  |  |  |  |  |  |
| O=P12N(CCN1c1ccccc1)CCN2c1ccccc1 | > 100 | > 100 | > 100 | > 100 | > 100 | > 100 | > 100 | > 100 | > 100 | > 100 | > 100 |  |  |  |  |  |  |  |
| CC(=O)C(=[N+]=[N-])C(=O)N1CCOC1=O | > 10 | > 10 | > 10 | > 10 | > 10 | > 10 | > 10 | > 10 | > 10 | > 10 | > 10 |  |  |  |  |  |  |  |
| O=C(NC1(c2cc3ccccc3s2)CCCCC1)C1CCC1 | > 100 | > 100 | > 100 | > 100 | > 100 | > 100 | > 100 | > 100 | > 100 | > 100 | > 100 |  |  |  |  |  |  |  |
| CNNC1=NS(=O)(=O)c2cc(C#N)c(Cl)cc2S1 | > 10 | > 10 | > 10 | > 10 | > 10 | > 10 | > 10 | > 10 | > 10 | > 10 | > 10 |  |  |  |  |  |  |  |
| CCN(CC)c1cccc2c1/C(=N/O)CCCC2 |  | > 100 |  |  | > 100 |  | > 100 | > 100 | > 100 | > 100 | > 100 | > 100 | > 100 | > 100 | > 100 | > 100 | > 100 | > 100 |
| CC#CC(O)(C(=O)OCCCN(C)C)C1CCCCC1 (stereo not drawn) | > 100 | > 100 | > 100 | > 100 | > 100 | > 100 | > 100 | > 100 | > 100 | > 100 | > 100 |  |  |  |  |  |  |  |
| O=c1ccn(CC2(CO)CCC2)c(=O)[nH]1 | > 100 | > 100 | > 100 | > 100 | > 100 | > 100 | > 100 | > 100 | > 100 | > 100 | > 100 |  |  |  |  |  |  |  |
